Measurements as given in patent US11524962B2, “Substituted pyrrolo[2,3-d]pyrimidines as inhibitors of protein arginine methyl transferase 5 (PRMT5)” (PRELUDE THERAPEUTICS, INCORPORATED, priority 2017, dated 2022).

What was measured:
PRMT5/MEP50 complex [1] = target: T1, PRMT5/MEP50 complex (Homo sapiens (Human), UniProt O14744); assay: Flash plate assay; assay type: biochemical; conditions: read-out: Flash Plate IC50
Procedure: Flash plate assay. Compounds were solubilized, and 3-fold diluted in 100% DMSO. […] Standard reactions were performed in a total volume of 30 μl in assay buffer, with 300 nM histone H4 based AcH4-23 (Anaspec: AS-65002) as substrate. To this was added the PRMT5/MEP50 complex diluted to provide a final assay concentration of 2.5 nM and the compounds were allowed to preincubate for 20 minutes at 37° C. The reaction was initiated by adding S-[3H-methyl]-adenosyl-L-methionine (PerkinElmer: NET155001MC) to final concentration of 1 μM. Following a 30 minutes incubation at 37° C., the reaction was stopped by adding 25 μL of 8M Guanidine HCl. Prepare streptavidin YSI SPA beads (Perkinelmer: RPNQ0012) at 0.3 mg/mL in assay buffer. To each reaction, add 150 μL of SPA beads suspension, and incubated while shaking at room temperature for 30 minutes. The plate was centrifuged at 100×g for 30 second before reading in a scintillation counter. IC50 values were determined by fitting the data to the standard 4 parameters with Hill Slope using GraphPad Prism software. This procedure produced the Flash Plate data in Table 7.

U-87 MG cells = assay: Cell proliferation assay in U-87 MG cells; assay type: cell-based; conditions: Homo sapiens, 240 h, day 10, read-out: Prolif_U87 IC50
Procedure: One day before experiment, Granta-519 cells were passaged to a density of 0.5×10^6 cells/ml. U-87 MG cells were trypsinized and 2,000 cells were seeded into 96-well plates and allow to grow overnight. On the day of experiment (day 0), Granta-519 Cells were spun down at 1,500 rpm for 4 min, resuspended in fresh medium to 0.5×10^6 cells/ml and 190 ul of cells were added to 96 well plates. For U-87 MG cells, old medium was removed and replaced with 190 uL fresh medium. Compound working stocks were first diluted at 1:50 with fresh medium in 96 well plate and 10 μL of diluted drugs were added to 96 well plates containing cells and incubated for 3 days. DMSO was used a vehicle control.
One day 3, 50 uL of Granta-519 cells were transferred to a new 96-well plate and 140 uL fresh medium was added. For U-87 MG cells, old medium was removed and replaced with 190 uL fresh medium. Compound working stocks were freshly diluted at 1:50 with medium and 10 μL of diluted drugs were added to cells and grow for 3 additional days. The same process was repeated on day 6. Cells were allowed to grow for additional 4 days.
On day 10, 100 uL Granta-519 cells were transferred to a new 96 well plate and 10 μL of Cell Counting Kit-8 (CCK-8, Jojindo, CK04-13) solution was added. For U-87 MG cells, old medium was removed and replaced with 100 uL fresh medium and 10 uL CCK-8 solution was added. Plates were incubated in CO2 incubator for 2 hours (Granta-519 cells) or 30 min (U-87 MG cells) and OD450 values were measured with a microplate reader (iMark microplate reader, Bio-Rad). Percentage of viable cells, relative to DMSO vehicle control, were calculated and plotted in Graphpad Prism ([Inhibitor]vs. normalized response−Variable slope) to determine proliferation IC50 values on day 10.
These cell proliferation procedures produced the data in Table 7.

[2] = tested on: Symmetric Di-Methyl Arginine (sDMA) marks in U-87 MG cells; assay: sDMA Western blot / In Cell Western in U-87 MG cells; assay type: cell-based; conditions: Homo sapiens, 72 h, 3 days, read-out: sDMA_U87 IC50
Procedure: (§1) Compound titration and cell culture: Compounds were dissolved in DMSO to make 10 mM stock and 3-fold series dilutions were further conducted to make working stocks top at 1 mM. Granta-519 cells were maintained in PRMI 1640 (Corning Cellgro, Catalog #: 10-040-CV) supplemented with 10% v/v FBS (GE Healthcare, Catalog #: SH30910.03) and U-87 MG cells were maintained in DMEM (Corning Cellgro, Catalog #: 10-013-CV) with 10% FBS and 2 mM Glutamin (Corning Cellgro, Catalog #25005CV).
(§2) To determine enzyme inhibition IC50 values in Granta-519 and U-87 MG cells using Western Blot analysis. One day before experiment, Granta-519 cells were passaged to a density of 0.5×10^6 cells/ml. U-87 MG cells were trypsinized and 4×10^5 cells were seeded into 6-well plates and allow to grow overnight. The next day, Granta-519 cells were spun down at 1,500 rpm for 4 min, resuspend in fresh medium at 0.5×10^6 cells/ml and 3 mL of culture (1.5×10^6 cells) were seeded into 6 well plate. Eight-point, 3-fold serial dilutions of compound working stocks were added to cells (3 ul, 1:1,000 dilution, DMSO concentration was 0.1%; final top concentration at 1 uM) and incubated for 3 days. Cells incubated with DMSO was used as a vehicle control.
(§3) Cells were harvested 3 days later, resuspended in 15 uL PBS, lysed in 4% SDS, and homogenized by passing through homogenizer column (Omega Biotek, Catalog #: HCR003). Total protein concentrations were determined by BCA assay (ThermoFisher Scientific, Catalog #: 23225). Lysates were mixed with 5× Laemmli buffer and boiled for 5 min. Forty ug of total protein was separated on SDS-PAGE gels (Bio-Rad, catalog #: 4568083, 4568043), transferred to PVDF membrane, blocked with 5% dry milk (Bio-Rad, Catalog #: 1706404) in TBS with 0.1% v/v Tween 20 (TBST) for 1 hour at room temperature (RT), and incubated with primary antibodies (sDMA: Cell signaling, Catalog #: 13222, 1:3,000; β-Actin: sigma, Catalog #: 1:5,000) in 5% dry milk in TBST at 4° C. overnight. The next day, membranes were washed with TBST, 5×5 min, and incubated with HRP conjugated seconded antibody (GE Healthcare; Catalog #: NA934-1ML, NA931-1ML; 1:5,000) for 2 hours at RT, followed by 5×5 min washes with TBST, and incubation with ECL substrates (Bio-Rad, Catalog #: 1705061, 1705062). Chemiluminescent signal was captured with Fluochem HD2 imager (Proteinsimple). SmD3me2s bands were quantified by ImageJ. Signals were normalized to β-Actin and DMSO control. IC50 values were calculated using Graphpad Prism ([Inhibitor]vs. normalized response−Variable slope).
U87-MG cells were trypsinized one day before the experiment, seeded into a 384-well plate at 2500 cells/well using a Multidrop Combi Dispenser (ThermoFisher) and allowed to grow overnight. The next day (day 0), a series of 9-point, 3-fold serial dilutions of compounds were prepared and dispensed into wells from a 1 mM stock solution using a TECAN digital dispenser (D300e) and the DMSO % concentration was normalized to 0.1%. Three days later, media was removed, and cells were processed as described above.
To determine IC50 values, the ratio for each well was calculated (sDMA 800 nm value/DRAQ5 700 nm value). Each plate included 28 negative control wells (DMSO only, minimum inhibition) and 18 positive control wells for maximum inhibition (treated with 3 uM of a reference compounds, background wells). The average ratios of minimum and maximum inhibition controls were calculated and used to determine the percentage of sDMA, relative to DMSO, for each well in the plate.
These procedures generated the sDMA data in Table 7.

[3] = tested on: Symmetric Di-Methyl Arginine (sDMA) marks in Granta-519 cells; assay: sDMA Western blot / In Cell Western in Granta-519 cells; assay type: cell-based; conditions: Homo sapiens, 72 h; Granta-519, 3 days; read-out: sDMA_Granta IC50
Procedure: as §1, §2, §3
sDMA In Cell Western procedure (ICW): Granta-519 cells were passaged to a density of 0.5×10^6 cells/ml one day before experiments and allowed to grow overnight. The next day (day 0), cells were spun down at 1,500 rpm for 4 min, resuspended in fresh medium to 0.2×10^6 cells/ml and 100 uL of cells were added to 384-well plates using a Multidrop Combi Dispenser (ThermoFisher). A series of 9-point, 3-fold serial dilutions of compounds were prepared and dispensed into wells from a 1 mM stock solution using a TECAN digital dispenser (D300e) and the DMSO % concentration was normalized in each well to 0.1%. DMSO and 3 uM of reference compounds were used as negative (minimum inhibition) and positive (maximum inhibition) controls, respectively. After 3 days of incubation, cells were first resuspended and then 80 ul of cells were transferred to a Poly-D-lysine 384-well plate (Corning, Catalog #354663), followed by 30 minutes incubation at room temperature (RT) and 5 additional hours of incubation at 37° C. […]

PRMT5/MEP50 complex [4] = target: T1, PRMT5/MEP50 complex; assay: HotSpot Assay; assay type: biochemical
Procedure: HotSpot Assay. Compounds were solubilized and 3-fold diluted in 100% DMSO. […] Standard reactions were performed in a total volume of 50 μl in assay buffer, with histone H2A (5 μM final) as substrate. To this was added the PRMT5/MEP50 complex diluted to provide a final assay concentration of 5 nM and the compounds were allowed to preincubate for 15 to 20 minutes at room temperature. The reaction was initiated by adding S-[3H-methyl]-adenosyl-L-methionine (PerkinElmer) to final concentration of 1 μM. Following a 60 minutes incubation at 30° C., the reaction was stopped by adding 100 μL of 20% TCA. Each reaction was spotted onto filter plate (MultiScreen FB Filter Plate, Millipore), and washed 5 times with PBS buffer, Scintillation fluid was added to the filter plate and read in a scintillation counter. IC50 values were determined by fitting the data to the standard 4 parameters with Hill Slope using GraphPad Prism software. This procedure generated the HotSpot data in Table 7.

T1 sequence (O14744 whole entry): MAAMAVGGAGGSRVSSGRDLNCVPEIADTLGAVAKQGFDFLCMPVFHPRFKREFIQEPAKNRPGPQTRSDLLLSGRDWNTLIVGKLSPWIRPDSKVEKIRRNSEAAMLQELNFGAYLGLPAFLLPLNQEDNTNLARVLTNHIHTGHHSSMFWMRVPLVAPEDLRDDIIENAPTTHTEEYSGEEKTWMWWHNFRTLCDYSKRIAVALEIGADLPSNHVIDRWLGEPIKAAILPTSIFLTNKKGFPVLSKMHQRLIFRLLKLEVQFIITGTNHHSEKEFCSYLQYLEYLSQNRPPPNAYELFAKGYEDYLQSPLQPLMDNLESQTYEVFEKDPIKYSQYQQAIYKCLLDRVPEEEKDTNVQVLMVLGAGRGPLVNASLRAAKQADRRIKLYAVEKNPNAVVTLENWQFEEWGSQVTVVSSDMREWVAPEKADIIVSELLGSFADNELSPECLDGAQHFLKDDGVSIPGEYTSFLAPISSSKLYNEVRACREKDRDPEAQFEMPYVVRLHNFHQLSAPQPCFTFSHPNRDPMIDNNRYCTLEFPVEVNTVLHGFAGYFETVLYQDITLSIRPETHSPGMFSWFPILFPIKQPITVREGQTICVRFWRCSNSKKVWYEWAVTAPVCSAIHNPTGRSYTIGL
T1 sequence (Q9BQA1 whole entry partner): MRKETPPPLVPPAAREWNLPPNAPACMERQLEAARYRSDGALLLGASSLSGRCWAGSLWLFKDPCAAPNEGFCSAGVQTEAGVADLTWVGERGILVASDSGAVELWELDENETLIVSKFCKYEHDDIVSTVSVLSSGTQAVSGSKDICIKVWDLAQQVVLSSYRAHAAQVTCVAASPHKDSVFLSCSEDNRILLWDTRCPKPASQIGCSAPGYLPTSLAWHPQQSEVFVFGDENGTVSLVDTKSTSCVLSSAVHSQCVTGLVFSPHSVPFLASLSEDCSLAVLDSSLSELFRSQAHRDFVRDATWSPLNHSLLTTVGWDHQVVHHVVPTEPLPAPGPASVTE

Structure (SMILES)	IC50 (PRMT5/MEP50 complex [1]) [nM]	IC50 (U-87 MG cells) [nM]	IC50 [2] [nM]	IC50 [3] [nM]	IC50 (PRMT5/MEP50 complex [4]) [nM]
COCCc1ncnc2c1ccn2[C@@H]1O[C@H]([C@H](O)c2ccc3c(c2)CC3)[C@@H](O)[C@H]1O [Example 48, (2R,3S,4R,5R)-2-((R)-bicyclo[4.2.0]octa-1(6),2,4-trien-3-yl(hydroxy)methyl)-5-(4-(2-methoxyethyl)-7H-pyrrolo[2,3-d]pyrimidin-7-yl)tetrahydrofuran-3,4-diol]	74	10000	758	337	
O[C@@H]1[C@H](O)[C@@H]([C@H](O)c2ccc3c(c2)CC3)O[C@H]1n1ccc2c(CF)ncnc21 [Example 49, (2R,3S,4R,5R)-2-((R)-bicyclo[4.2.0]octa-1(6),2,4-trien-3-yl(hydroxy)methyl)-5-(4-(fluoromethyl)-7H-pyrrolo[2,3-d]pyrimidin-7-yl)tetrahydrofuran-3,4-diol]	78	10000	625	375	
Nc1ncnc2c1ccn2[C@@H]1O[C@H]([C@H](O)c2ccc3c(c2)CCC3)[C@@H](O)[C@H]1O [Example 45, (2R,3R,4S,5R)-2-(4-amino-7H-pyrrolo[2,3-d]pyrimidin-7-yl)-5-((R)-(2,3-dihydro-1H-inden-5-yl)(hydroxy)methyl)tetrahydrofuran-3,4-diol]	6.6	547	54		

More lines, in order of falling IC50 (PRMT5/MEP50 complex [1]), values ahead:

IC50 (PRMT5/MEP50 complex [1]) [nM]	IC50 (U-87 MG cells) [nM]	IC50 [2] [nM]	IC50 [3] [nM]	IC50 (PRMT5/MEP50 complex [4]) [nM]	Structure (SMILES)
24.3	388	110		5	Cc1ncnc2c1ccn2[C@@H]1O[C@H]([C@](C)(O)c2ccc3c(c2)CC3)[C@@H](O)[C@H]1O [Example 9, (2S,3S,4R,5R)-2-((R)-1-(bicyclo[4.2.0]octa-1(6),2,4-trien-3-yl)-1-hydroxyethyl)-5-(4-methyl-7H-pyrrolo[2,3-d]pyrimidin-7-yl)tetrahydrofuran-3,4-diol]
23.7	1160	113			Cc1ncnc2c1ccn2[C@@H]1O[C@H]([C@H](O)c2ccc3c(c2)CCC3)[C@@H](O)[C@H]1O [Example 44, (2R,3S,4R,5R)-2-((R)-(2,3-dihydro-1H-inden-5-yl)(hydroxy)methyl)-5-(4-methyl-7H-pyrrolo[2,3-d]pyrimidin-7-yl)tetrahydrofuran-3,4-diol]
4.4			203	6	Nc1ncnc2c1ccn2[C@@H]1O[C@H]([C@H](O)c2ccc3c(c2)OCC3)[C@@H](O)[C@H]1O [Example 14, (2R,3R,4S,5R)-2-(4-amino-7H-pyrrolo[2,3-d]pyrimidin-7-yl)-5-((R)-(2,3-dihydrobenzofuran-6-yl)(hydroxy)methyl)tetrahydrofuran-3,4-diol]
